Assay: gradient 5% acetonitrile 3 min, to 50% in 2 min, to 85% in 15 min, held 3 min, 100 µL/min
Settings: column: Zorbax Extend-C18 2.1 x 50 mm; eluents: water / acetonitrile, 0.1% formic acid
In short: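 Pure standards were run in mixtures of ~100 molecules by HPLC coupled to a quadrupole time-of-flight mass spectrometer. The column was a Zorbax Extend-C18 (2.1 × 50 mm, 1.8 μm) at 100 μL/min, with water and acetonitrile each containing 0.1% formic acid, in positive and negative ionization mode. Dead and dwell volumes were 40 μL and 900 μL. Retention time was taken from computationally picked adduct peaks, each manually inspected, with data collected over 3 months.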

Row | Compound | RP-LC retention time
1 | Cc1cc(C)cc(NC(=O)Cn2ccc3sccc3c2=O)c1 | 820 s
2 | CN(C(=O)c1c2c(cn(-c3ccccc3)c1=O)C(=O)CC(C)(C)C2)c1ccc(F)cc1 | 835 s
3 | Cc1ccc(S(=O)(=O)N(C)C)cc1-c1nnc(-c2ccccc2Cl)o1 | 1010 s
4 | CCOc1ccc(N2C=C(C#N)S(=O)(=O)c3ccc(Cl)cc32)cc1 | 1040 s
5 | COc1ccc2c(C)c(CCC(=O)N3CCC(C(N)=O)CC3)c(=O)oc2c1C | 670 s
6 | C=CCn1c(-c2ccc([N+](=O)[O-])cc2)nc2nc3ccccc3nc21 | 825 s
7 | CCOC(=O)c1[nH]c(C)c(CCC(=O)N2CCC(C(=O)NCc3ccc4c(c3)OCO4)CC2)c1C | 764 s
8 | Cc1ccc(NC(=O)Cc2nnc(-c3cnccn3)o2)c(Cl)c1 | 720 s
9 | COc1ccc2c(C)cc(C)nc2n1 | 595 s
10 | Cc1nnc([C@@H]2CC(F)(F)CN2C(=O)COc2ccccc2)o1 | 667 s
11 | Cc1ccc(C)c(S(=O)(=O)N2CCc3nc[nH]c3C2)c1 | 627 s
12 | O=C(NCc1ccc(F)cc1)c1cn2cc(Cl)ccc2n1 | 799 s
13 | COc1ccc(-c2noc(-c3nc(-c4ccccc4F)no3)n2)cc1OC | 1110 s
14 | Cc1ccccc1NC(=O)N(C)Cc1ccsc1 | 866 s
15 | O=C(NC1CCCCC1)N1CCCC(Cn2c(C3CC3)nc3cccnc32)C1 (stereo unspecified) | 668 s
16 | Cc1ccc(-n2cc3c(N4CCCC(C(=O)NCc5ccc(N(C)C)cc5)C4)ncnc3n2)cc1 (stereo unspecified) | 600 s
17 | O=C(CCCc1nnc2c(=O)n(-c3cccc(F)c3)ccn12)NCCc1c[nH]c2ccccc12 | 707 s
18 | COc1ccc(-c2[nH]ncc2CN2CC(F)(F)C[C@H]2CN2CCOCC2)cc1 | 590 s
19 | CCSc1nnc(NC(=O)Cn2c(-c3cnccn3)nc3ccccc32)s1 | 701 s
20 | CCCn1cc(-c2ccncc2)cc1C(=O)Nc1ccc(OC)c(OC)c1 | 654 s
21 | CCN1C(=O)c2cccnc2Sc2cc(CNC(=O)c3sc(C)nc3C)ccc21 | 681 s

Row | Compound | RP-LC retention time
22 | O=C(Nc1cccc(C(F)(F)F)c1)c1cnc(-c2ccc(F)cc2)nc1-c1ccncc1 | 1060 s
23 | CSc1ccc(CNC(=O)CN2CCc3[nH]c4c(C)c(C)ccc4c(=O)c3C2)cc1 | 638 s
24 | COc1ccc(-c2nc3ccccn3c2Nc2ccc3c(c2)OCCO3)cc1 | 719 s
25 | Cn1cc2c3c(cccc31)CN(C(=O)c1cc(F)ccc1Cl)CC2 | 938 s
26 | COCCN(CC(=O)N1CCc2sccc2C1COc1ccccc1)C(=O)COC (stereo unspecified) | 787 s
27 | CCOc1cccc(-c2noc(CN3C(=O)COc4ccccc43)n2)c1 | 1050 s
28 | COc1ccc(C)cc1NC(=O)C1CCN(S(=O)(=O)c2cn(C(C)C)cn2)CC1 | 810 s
29 | CC(C(=O)Nc1nc2ccc(S(C)(=O)=O)cc2s1)n1nnc2ccccc2c1=O (stereo unspecified) | 706 s
30 | CN(C)CCNC(=O)c1cc2cc(S(=O)(=O)N(C)C)ccc2n1Cc1ccccc1 | 674 s
31 | Cc1ncc2c(n1)C[C@@H]1CC[C@H]2N1C(=O)Nc1ccccc1 | 636 s
32 | CCCn1cc(CCNC(=O)c2ccc(Cl)cc2)c2cccnc21 | 821 s
33 | COc1cccc(-c2noc(Cn3c(=O)n(-c4cccc(OC)c4)c(=O)c4sccc43)n2)c1 | 970 s
34 | O=C1NCN(c2ccccc2)C12CCN(CCCC(c1ccc(F)cc1)c1ccc(F)cc1)CC2 | 892 s
35 | COCCCNCc1ccc(-c2ccc(C(C)O)cc2)o1 (stereo unspecified) | 600 s
36 | O=C(NCCc1ccc(Cl)cc1)C1CCN(C(=O)c2cccn2-c2cccnc2)CC1 | 727 s
37 | COCC(=O)Nc1ccccc1NC(=O)c1ccco1 | 618 s
38 | Cc1ccc(S(=O)(=O)N2CCC(n3cnnc3C)CC2)c(C)c1 | 713 s
39 | COc1ccc(NC(=O)N2C[C@@H](F)C[C@H]2C(=O)N2CCc3ccccc3C2)cc1F | 797 s
40 | CCCN1C(=O)c2cc(S(=O)(=O)Nc3ccc(Cl)cc3)ccc2Oc2cccnc21 | 1110 s
41 | COc1cc(CN2CCC3(CC2)CC(O)CCO3)ccc1F (stereo unspecified) | 541 s
42 | CSc1ccc(-c2nc3cnccn3c2Nc2ccc(Cl)cc2)cc1 | 1010 s

Row | Compound | RP-LC retention time
43 | COc1ccc(NC(=O)N2CCC3(CC2)NC(=O)c2ccccc2N3C)c(OC)c1 | 649 s
44 | CCc1ccc(N2CC(c3noc(-c4cccc(Cl)c4)n3)CC2=O)cc1 (stereo unspecified) | 1200 s
45 | Cc1cccc(CNS(=O)(=O)c2cc3n(c2)CCCNC3=O)c1 | 677 s
46 | Cc1ccc(CN2CCC(CNC(=O)c3cc(=O)n(C)c4c3c(=O)n(C)c(=O)n4C)CC2)cc1 | 625 s
47 | Cc1nc2cc(-c3noc(Cc4cccc(Cl)c4)n3)ccc2o1 | 1070 s
48 | Clc1ccc2nc(-c3ccc(N4CCOCC4)cc3)c(Nc3ccccc3)n2c1 | 752 s
49 | COc1ccc(C(=O)Nc2c(-c3ccc(F)cc3)nc3cc(C)ccn23)cc1OC | 647 s
50 | [C-]#[N+]/C(C(=O)Nc1ccc(C(F)(F)F)cc1)=C(\C)O | 846 s
51 | O=C1CCCc2nc(N3CCN(c4ccccn4)CC3)nc(Nc3ccccc3)c21 | 735 s
52 | Cc1ccn2c(=O)c(NC(=O)c3ccco3)c(C)nc2c1 | 544 s
53 | Cc1ccc(CNC(=O)C2(C)CCCN(C(=O)Nc3ccc(C)c(C)c3)C2)cc1 (stereo unspecified) | 897 s
54 | CCc1nc2cc(-c3noc(-c4nccc5ccccc45)n3)ccc2o1 | 1130 s
55 | CNC(=O)CCNc1c(-c2ccc(OC)cc2)nc2cnccn12 | 588 s
56 | COc1ccc(S(=O)(=O)N2CCc3nn(C)c(=O)n3CC2)cc1Cl | 710 s
57 | CCCNc1cc(N2CCC(CCC(=O)N3CCC(C(=O)OCC)CC3)CC2)ncn1 | 664 s
58 | COc1ccccc1N1CCN(C(=O)C2CCN(c3c(C)n(C)c(=O)n(C)c3=O)CC2)CC1 | 718 s
59 | COc1cc(CNC(=O)c2cn3ccc(C)cc3n2)cc(OC)c1 | 632 s
60 | COc1ccc2c(c1)C1(CCN(C(=O)Nc3ccccc3OC)C1)C(=O)N2 (stereo unspecified) | 722 s
61 | Cc1cc(NC(=O)N(C)CC2CCOC2)ccc1Br (stereo unspecified) | 798 s
62 | Cc1nnc(Cc2ccccc2)c2n[nH]c(C)c12 | 647 s

Continued, values first:

Row | RP-LC retention time | Compound
63 | 597 s | CCn1cc(CCN2CCN(C(=O)C3CCCC3)CC2)c2cccnc21
64 | 743 s | O=C(NCc1csc(-c2cccs2)n1)C1CCN(C(=O)c2ccc(F)cc2)CC1
65 | 746 s | Cc1cc(NC(=O)C2CCN(C(=O)c3nc4ccccc4s3)CC2)no1
66 | 836 s | COC[C@@H]1CN(S(=O)(=O)Cc2ccccc2)C[C@H]1c1nc(C)no1
67 | 568 s | CC(=O)c1ccc(Nc2c(C(=O)N3CCOCC3)cnc3nc(C)ccc23)cc1
68 | 983 s | CCOc1nc2ccccc2nc1N1CCCC(C(=O)N2CCOCC2)C1 (stereo unspecified)
69 | 667 s | Cc1nc(-c2ccccc2)sc1C(=O)N1CCC(CC(=O)N2CCOCC2)CC1
70 | 746 s | COCc1nc2cccnc2n1C1CCN(C(=O)Nc2ccc(Br)cc2F)CC1
71 | 605 s | Cc1nnc2ccc(-c3cccc(NC(=O)C4CCN(S(C)(=O)=O)CC4)c3)nn12
72 | 717 s | O=C(c1ccncc1)N1CCN(C(=O)c2nnn3c2COC(c2ccc(Cl)cc2)C3)CC1 (stereo unspecified)
73 | 589 s | CCOC(=O)c1c(C)[nH]c(C(=O)N2CCCC(C(=O)NCCCN3CCCC3)C2)c1C (stereo unspecified)
74 | 750 s | CC(C)Cc1nnc(NC(=O)C2CCN(C(=O)c3ccccc3)CC2)s1
75 | 953 s | CCn1cc(-c2ccc(Cl)cc2)cc1C(=O)N1CCOCC1
76 | 712 s | CCC(=O)N1CCCC1COc1ccc(C(=O)N2CCCC2)cc1 (stereo unspecified)
77 | 1120 s | N#Cc1cccc(NC(=O)C2CCCN(S(=O)(=O)c3cc(-c4noc(C5CCC5)n4)cs3)C2)c1 (stereo unspecified)
78 | 716 s | Cc1sc2ccn(C)c(=O)c2c1C(=O)NC1CCCCC1
79 | 688 s | Cc1noc(-c2csc(C(=O)N3CCCC3)n2)n1
80 | 702 s | O=C(CCc1ccccc1)Nc1cnn(-c2ncncc2N2CCCC2)c1
81 | 831 s | O=C(COc1ccc(Cl)cc1)N1CCC(c2nnc(-c3ccc(F)cc3)o2)CC1
82 | 625 s | O=C(O)C1CCc2sc(C(=O)N3CCOCC3)cc2C1 (stereo unspecified)
83 | 601 s | COc1ccc(OC)c(Nc2c(C(=O)N3CCCC3)cnc3nc(C)ccc23)c1
84 | 640 s | O=C(Cc1cccs1)Nc1ccc(-c2nnc3n2CCCC3)cc1
85 | 806 s | CC(=O)Nc1nsc(N2CCC(C(=O)N3CCN(c4cccc(C)c4C)CC3)CC2)n1
86 | 1060 s | COc1ccc(-c2nnc(-c3cccc(S(=O)(=O)N4CCCCC4)c3)o2)cc1
87 | 833 s | COc1cc(=O)n2c(c1C(=O)Nc1ccc(Br)c(C)c1)CCCC2
88 | 570 s | O=C(NCCCN1CCCC1=O)c1ccc2ncnc(N3CCCC3)c2c1
89 | 1000 s | Cc1ccc(-c2noc(C3CCCN3C(=O)c3ccc4c(c3)OCO4)n2)cc1 (stereo unspecified)
90 | 611 s | Cc1cccc2c(C(=O)NC(C)C)cc(N3CCCC3)nc12
91 | 991 s | Cc1nc(-c2ccc3c(c2)CCN3C(=O)Cc2cccc(F)c2)cs1

Reference: the METLIN SMRT retention time set (Domingo-Almenara et al. 2019)
